Measured values taken from patent publication US9914730B2, “Azaquinazoline inhibitors of Atypical protein Kinase C” (Ignyta, Inc., priority 2012, dated 2018).
pIC50: −log10 of the molar value. Where a name gives a salt, the structure may show the parent alone.

Biological target: T1, full-length human PKCι (Homo sapiens, UniProt P41743)
T1 construct: Recombinant, full-length human PKCι expressed in Sf21 insect cells is also commercially available; purchased; host or cells: Sf21 insect cells
T1 sequence (P41743 1-596): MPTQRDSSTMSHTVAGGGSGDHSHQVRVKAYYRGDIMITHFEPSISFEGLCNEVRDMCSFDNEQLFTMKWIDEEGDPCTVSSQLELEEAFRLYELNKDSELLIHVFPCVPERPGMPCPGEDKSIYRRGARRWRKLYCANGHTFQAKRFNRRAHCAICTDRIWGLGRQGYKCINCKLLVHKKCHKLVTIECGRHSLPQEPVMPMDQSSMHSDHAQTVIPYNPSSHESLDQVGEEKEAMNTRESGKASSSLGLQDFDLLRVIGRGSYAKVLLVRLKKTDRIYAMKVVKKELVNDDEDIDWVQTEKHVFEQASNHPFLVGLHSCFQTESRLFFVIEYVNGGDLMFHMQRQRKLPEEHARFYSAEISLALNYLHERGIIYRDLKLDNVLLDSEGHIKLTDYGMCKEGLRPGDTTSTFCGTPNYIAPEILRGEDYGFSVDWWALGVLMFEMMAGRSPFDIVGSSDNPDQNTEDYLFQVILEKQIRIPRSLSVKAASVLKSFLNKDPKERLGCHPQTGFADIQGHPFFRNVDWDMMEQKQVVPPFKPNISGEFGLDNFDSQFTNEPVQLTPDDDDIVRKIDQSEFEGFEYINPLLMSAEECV
Assay: PKCι IC50 IMAP assay, full-length PKCι at 150 μM ATP
Assay type: biochemical
Settings: read-out: IC50 in IMAP assay against full length PKCi at 150 μM ATP
Method in brief: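 Recombinant full-length human PKCι (Sf21-expressed, typically 15 pM) phosphorylated 100 nM 5FAM-labelled PKCε pseudosubstrate-derived peptide with 150 μM ATP (5× KM^APP) in 18 mM tris-HCl pH7.5, 9 mM MgCl2, EGTA, DTT, 4% DMSO. After 60 min at room temperature, IMAP binding reagent was added for 2 h and fluorescence polarisation read.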

| pIC50 | Compound |
| --- | --- |
| > 7.00 | CC(C)(C)c1cc2c(-c3nc(N4CCNCC4)c4c(C5CC5)cnc(Cl)c4n3)ccnc2[nH]1 [Example 2118, 2-(2-tert-Butyl-1H-pyrrolo[2,3-b]pyridin-4-yl)-8-chloro-5-cyclopropyl-4-piperazin-1-yl-pyrido[3,4-d]pyrimidine] |
| > 7.00 | c1cc(Nc2cc(-c3nc(N[C@@H]4CCNC4)c4ccncc4n3)ccn2)ncn1 [Example 347, {2-[2-(Pyrimidin-4-ylamino)-pyridin-4-yl]-pyrido[3,4-d]pyrimidin-4-yl}-(R)-pyrrolidin-3-yl-amine] |
| > 7.00 | 4-{5-(4-Cyano-pyridin-2-ylamino)-2-[2-(4-cyano-pyridin-2-ylamino)-pyridin-4-yl]-pyrido[3,4-d]pyrimidin-4-yl}-piperazine [Example 249] |
| 6.00 to 7.00 | N#Cc1ccc(Nc2cc(-c3nc(N4CCNCC4)c4c(C5CC5)cncc4n3)ccn2)cc1F [Example 631, 4-[4-(5-Cyclopropyl-4-piperazin-1-yl-pyrido[3,4-d]pyrimidin-2-yl)-pyridin-2-ylamino]-2-fluoro-benzonitrile] |
| > 7.00 | COc1cccc(CC(=O)Nc2cc(-c3nc(N4CCNCC4)c4c(OC)cncc4n3)ccn2)c1 [Example 372, 2-(3-Methoxy-phenyl)-N-[4-(5-methoxy-4-piperazin-1-yl-pyrido[3,4-d]pyrimidin-2-yl)-pyridin-2-yl]-acetamide] |
| > 7.00 | CC1(C)CN(c2nc(-c3ccnc4[nH]c(C(C)(C)C)cc34)nc3cncc(C4CC4)c23)CCN1 [Example 2002, 2-(2-tert-Butyl-1H-pyrrolo[2,3-b]pyridin-4-yl)-5-cyclopropyl-4-(3,3-dimethyl-piperazin-1-yl)-pyrido[3,4-d]pyrimidine] |
| 5.00 to 6.00 | C[C@H]1CN(c2nc(-c3ccnc(Nc4nc(F)c(F)cc4F)c3)nc3cncc(C4CC4)c23)CCN1 [Example 830, {4-[5-Cyclopropyl-4-((S)-3-methyl-piperazin-1-yl)-pyrido[3,4-d]pyrimidin-2-yl]-pyridin-2-yl}-(3,5,6-trifluoro-pyridin-2-yl)-amine] |
| 6.00 to 7.00 | COCc1ccccc1Nc1cc(-c2nc(N3CCNCC3)c3c(C4CC4)cncc3n2)ccn1 [Example 517, [4-(5-Cyclopropyl-4-piperazin-1-yl-pyrido[3,4-d]pyrimidin-2-yl)-pyridin-2-yl]-(2-methoxymethyl-phenyl)-amine] |
| > 7.00 | COc1ccc(Nc2cc(-c3nc(N4CCNCC4)c4c(C5CC5)cncc4n3)ccn2)cc1OC [Example 610, [4-(5-Cyclopropyl-4-piperazin-1-yl-pyrido[3,4-d]pyrimidin-2-yl)-pyridin-2-yl]-(3,4-dimethoxy-phenyl)-amine] |
| > 7.00 | Cc1cc2c(-c3nc(N4CCN[C@@H](C5CC5)C4)c4c(C5CC5)cncc4n3)ccnc2[nH]1 [Example 1216, 5-Cyclopropyl-4-((S)-3-cyclopropyl-piperazin-1-yl)-2-(2-methyl-1H-pyrrolo[2,3-b]pyridin-4-yl)-pyrido[3,4-d]pyrimidine] |
| > 7.00 | FC(F)(F)C1CN(c2nc(-c3ccnc4[nH]ccc34)nc3cncc(C4CC4)c23)CCN1 (stereo not shown) [Example 1218, 5-Cyclopropyl-2-(1H-pyrrolo[2,3-b]pyridin-4-yl)-4-(3-trifluoromethyl-piperazin-1-yl)-pyrido[3,4-d]pyrimidine] |
| > 7.00 | COc1cncc2nc(-c3ccnc(NC(=O)Cc4cccnc4)c3)nc(N3CCNCC3)c12 [Example 399, N-[4-(5-Methoxy-4-piperazin-1-yl-pyrido[3,4-d]pyrimidin-2-yl)-pyridin-2-yl]-2-pyridin-3-yl-acetamide] |
| 4.40 to 5.00 | O=C(NC1CCCCC1)N1CCN(c2nc(-c3ccncc3)nc3cnccc23)CC1 [Example 57, N-cyclohexyl-4-[2-(pyridin-4-yl)-pyrido[3,4-d]-pyrimidin-4-yl]-piperazine-1-carboxamide] |
| 6.00 to 7.00 | N[C@H](CNc1nc(-c2ccncc2)nc2c(-c3ccsc3)nccc12)Cc1ccccc1 [Example 114, N-[(2S)-2-amino-3-phenylpropyl]-2-(pyridin-4-yl)-8-(thiophen-3-yl)pyrido[3,4-d]pyrimidin-4-amine] |
| > 7.00 | C[C@@H](Nc1cc(-c2nc(N3CCNCC3)c3c(C4CC4)cncc3n2)ccn1)c1ccc2ccccc2c1 [Example 2160, [4-(5-Cyclopropyl-4-piperazin-1-yl-pyrido[3,4-d]pyrimidin-2-yl)-pyridin-2-yl]-((R)-1-naphthalen-2-yl-ethyl)-amine] |
| 4.40 to 5.00 | c1ccc(C[C@H]2CN(Cc3ccccc3)CCN2c2nc(-c3ccncc3)nc3cnccc23)cc1 [Example 20, (2S)-2,4-dibenzyl-1-[2-(pyridin-4-yl)-pyrido[3,4-d]-pyrimidin-4-yl]-piperazine] |
| 6.00 to 7.00 | COc1cncc2nc(-c3ccnc(Nc4ccccc4)c3)nc(N3CCN[C@@H](CC#N)C3)c12 [Example 232, {(S)-4-[5-Methoxy-2-(2-phenylamino-pyridin-4-yl)-pyrido[3,4-d]pyrimidin-4-yl]-piperazin-2-yl}-acetonitrile] |
| 6.00 to 7.00 | OC1(C2CN(c3nc(-c4ccnc(Cl)c4)nc4cncc(C5CC5)c34)CCN2)CC1 (stereo not shown) [Example 562, 1-{4-[2-(2-Chloro-pyridin-4-yl)-5-cyclopropyl-pyrido[3,4-d]pyrimidin-4-yl]-piperazin-2-yl}-cyclopropanol] |
| 6.00 to 7.00 | CC(=O)N1CCC(Nc2nc(-c3ccnc(Nc4c(F)cccc4F)c3)nc3cncc(C4CC4)c23)CC1 [Example 2085, 1-(4-{5-Cyclopropyl-2-[2-(2,6-difluoro-phenylamino)-pyridin-4-yl]-pyrido[3,4-d]pyrimidin-4-ylamino}-piperidin-1-yl)-ethanone] |
| > 7.00 | FC(F)(F)C1CN(c2nc(-c3ccnc(NC4CC4)c3)nc3cncc(C4CC4)c23)CCN1 (stereo not shown) [Example 508, Cyclopropyl-{4-[5-cyclopropyl-4-(3-trifluoromethyl-piperazin-1-yl)-pyrido[3,4-d]pyrimidin-2-yl]-pyridin-2-yl}-amine] |
| > 7.00 | COc1cncc2nc(-c3ccnc4[nH]c(C)cc34)nc(N3CCNCC3)c12 [Example 1201, 5-Methoxy-2-(2-methyl-1H-pyrrolo[2,3-b]pyridin-4-yl)-4-piperazin-1-yl-pyrido[3,4-d]pyrimidine] |
| > 7.00 | Fc1ccccc1-n1cc(Nc2cc(-c3nc(N4CCNCC4)c4c(C5CC5)cncc4n3)ccn2)cn1 [Example 817, [4-(5-Cyclopropyl-4-piperazin-1-yl-pyrido[3,4-d]pyrimidin-2-yl)-pyridin-2-yl]-[1-(2-fluoro-phenyl)-1H-pyrazol-4-yl]-amine] |
| 4.40 to 5.00 | c1cc(-c2nc(N3CCN4CCC[C@@H]4C3)c3ccncc3n2)ccn1 [Example 64, 4-{4-[(8aR)-octahydropyrrolo-[1,2-a]piperazin-2-yl]pyrido[3,4-d]-pyrimidin-2-yl}-pyridine] |
| > 7.00 | Fc1ccc(Nc2cc(-c3nc(N4CCNCC4)c4c(C5CC5)cncc4n3)ccn2)cn1 [Example 672, [4-(5-Cyclopropyl-4-piperazin-1-yl-pyrido[3,4-d]pyrimidin-2-yl)-pyridin-2-yl]-(6-fluoro-pyridin-3-yl)-amine] |
| > 7.00 | Fc1nc(C2CC2)ccc1Nc1cc(-c2nc(N3CCNCC3)c3c(C4CC4)cncc3n2)ccn1 [Example 725, (6-Cyclopropyl-2-fluoro-pyridin-3-yl)-[4-(5-cyclopropyl-4-piperazin-1-yl-pyrido[3,4-d]pyrimidin-2-yl)-pyridin-2-yl]-amine; bis-trifluoroacetic acid salt] |
| 6.00 to 7.00 | N[C@H](CNc1nc(-c2ccncc2)nc2c(-c3ccccc3Cl)nccc12)Cc1ccccc1 [Example 96, N-[(2S)-2-amino-3-phenylpropyl]-8-(2-chlorophenyl)-2-(pyridin-4-yl)pyrido[3,4-d]pyrimidin-4-amine] |
| 4.40 to 5.00 | c1cc(-c2nc(N3CCOCC3)c3ccncc3n2)ccn1 [Example 21, 4-[2-(pyridin-4-yl)pyrido[3,4-d]-pyrimidin-4-yl]morpholine] |
| > 7.00 | c1ccc2c(c1)CC[C@@H]2Nc1cc(-c2nc(N3CCNCC3)c3c(C4CC4)cncc3n2)ccn1 [Example 2099, [4-(5-Cyclopropyl-4-piperazin-1-yl-pyrido[3,4-d]pyrimidin-2-yl)-pyridin-2-yl]-(S)-indan-1-yl-amine] |
| 6.00 to 7.00 | CN(C)[C@H](CNc1nc(-c2ccncc2)nc2cnccc12)Cc1ccccc1 [Example 25, N,N-Dimethyl[(2S)-1-phenyl-3-{[2-(pyridin-4-yl)-pyrido[3,4-d]-pyrimidin-4-yl]-amino}propan-2-yl]amine] |
| 6.00 to 7.00 | Fc1ccc(F)c(Nc2cc(-c3nc(N4CCNCC4)c4c(Cl)cncc4n3)ccn2)c1F [Example 257, [4-(5-Chloro-4-piperazin-1-yl-pyrido[3,4-d]pyrimidin-2-yl)-pyridin-2-yl]-(2,3,6-trifluoro-phenyl)-amine] |

| Compound | pIC50 |
| --- | --- |
| CN(c1nc(-c2ccnc(Nc3ncc(F)cc3F)c2)nc2cncc(C3CC3)c12)C1CCNCC1(C)C (stereo not shown) [Example 2196, {5-Cyclopropyl-2-[2-(3,5-difluoro-pyridin-2-ylamino)-pyridin-4-yl]-pyrido[3,4-d]pyrimidin-4-yl}-(3,3-dimethyl-piperidin-4-yl)-methyl-amine] | > 7.00 |
